Source: publication PMC3950977 (Nanotechnology, 2011)
Peptide text beside a SMILES is read from it. * marks the point of attachment. X1 = NC(=O)CCOCCOCCOCCOCCOCCOCCOCCOCCOCCOCCOCCOCCOCCOCCOCCOCCOCCOCCOCCOCCOCCOCCOCCOCCOCCOCCOCCOCCN*

What was measured:
[1] = Peptide degradation by proteinase K; format: in vitro ADME; details: isolated enzyme proteinase k, pH 7.1
[2] = transmission electron microscopy and dynamic light scattering; cited from earlier work

Row | Structure (SMILES) | half-life [1] | diameter of self-assembled nanospheres [2]
1 | CC[C@H](C)[C@H](NC(=O)[C@@H](NC(=O)[C@@H](N)Cc1ccccc1)C(C)C)C(=O)N[C@H](C(=O)N[C@@H](CC(C)C)C(=O)N1CCC[C@H]1C(=O)N[C@@H](Cc1ccccc1)C(=O)N[C@@H](Cc1c[nH]c2ccccc12)C(=O)N[C@@H](C)C(=O)N[C@H](C(=O)N[C@@H](CC(=O)O)C(=O)N[C@@H](C)C(=O)N[C@H](C(=O)N[C@@H](C)C(=O)N[C@@H](CC(N)=O)C(=O)N[C@@H](Cc1c[nH]c2ccccc12)C(=O)N[C@@H](Cc1ccc(O)cc1)C(=O)N[C@@H](Cc1ccccc1)C(=O)NCC(=O)N[C@@H](CC(N)=O)C(=O)N[C@@H](CC(=O)O)C(=O)N[C@@H](CC(=O)O)C(=O)NCCOCCOCCOCCOCCOCCOCCOCCOCCOCCOCCOCCOCCOCCOCCOCCOCCOCCOCCOCCOCCOCCOCCOCCOCCOCCOCCOCCOCCC(N)=O)C(C)C)C(C)C)[C@@H](C)O [x4-2-9] (H-FVITLPFWAVDAVANWYFGNDD-X1) | 2.9 ± 1.2 min | –
2 | CC[C@H](C)[C@H](NC(=O)[C@@H](NC(=O)[C@H](Cc1ccccc1)NC(=O)[C@H](CC(C)C)NC(=O)[C@@H](N)CC(C)C)C(C)C)C(=O)N[C@H](C(=O)N[C@@H](CC(C)C)C(=O)N1CCC[C@H]1C(=O)N[C@@H](Cc1ccccc1)C(=O)N[C@@H](Cc1c[nH]c2ccccc12)C(=O)N[C@@H](C)C(=O)N[C@H](C(=O)N[C@@H](CC(=O)O)C(=O)N[C@@H](C)C(=O)N[C@H](C(=O)N[C@@H](C)C(=O)N[C@@H](CC(N)=O)C(=O)N[C@@H](Cc1c[nH]c2ccccc12)C(=O)N[C@@H](Cc1ccc(O)cc1)C(=O)N[C@@H](Cc1ccccc1)C(=O)NCC(=O)N[C@@H](CC(N)=O)C(=O)N[C@@H](CC(=O)O)C(=O)N[C@@H](CC(=O)O)C(=O)NCCOCCOCCOCCOCCOCCOCCOCCOCCOCCOCCOCCOCCOCCOCCOCCOCCOCCOCCOCCOCCOCCOCCOCCOCCOCCOCCOCCOCCC(N)=O)C(C)C)C(C)C)[C@@H](C)O [x4-2-6] (H-LLFVITLPFWAVDAVANWYFGNDD-X1) | 11.8 ± 1.8 min | 10 nm
